Test results taken from patent US8153693B2, “Compounds for the selective treatment of the intestinal immuno-inflammatory component of the celiac disease” (Giuliani International Limited, priority 2007, dated 2012).

Key:
PPARγ = target: T1, PPARγ (Homo sapiens, UniProt P37231); assay: PPARγ activation, PPRE luciferase reporter in transfected HT-29 STD cells (Example 7); format: cell-based; conditions: 30 mM, positive control
T1 construct: HT-29 STD cells were transiently transfected using the Effectene™ transfection reagent; endogenous in cells; host or cells: HT-29 STD (ATCC HTB-38)
T1 sequence (P37231 1-505): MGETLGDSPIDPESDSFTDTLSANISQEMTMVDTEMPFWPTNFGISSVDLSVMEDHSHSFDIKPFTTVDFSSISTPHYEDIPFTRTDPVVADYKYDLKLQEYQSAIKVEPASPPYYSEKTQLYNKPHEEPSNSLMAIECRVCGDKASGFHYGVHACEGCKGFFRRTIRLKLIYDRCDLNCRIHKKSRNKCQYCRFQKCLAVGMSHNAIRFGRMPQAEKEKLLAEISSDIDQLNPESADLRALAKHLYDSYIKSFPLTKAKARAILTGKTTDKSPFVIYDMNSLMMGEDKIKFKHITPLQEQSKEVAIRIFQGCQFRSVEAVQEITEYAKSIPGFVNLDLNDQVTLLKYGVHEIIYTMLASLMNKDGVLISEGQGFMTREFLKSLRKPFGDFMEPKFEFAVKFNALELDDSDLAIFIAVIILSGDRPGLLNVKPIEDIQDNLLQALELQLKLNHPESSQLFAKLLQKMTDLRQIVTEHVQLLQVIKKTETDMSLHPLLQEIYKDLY
Procedure: The colon carcinoma cell line HT-29 STD (ATCC HTB-38) was routinely grown in DMEM supplemented with 10% heat-FCS, and antibiotics.
HT-29 STD cells were transiently transfected using the Effectene™ transfection reagent (Qiagen™) according to instructions from the manufacturer. To test PPARγ activation, we performed transfection with 500 ng of a minimal promoter construct containing two copies of PPRE obtained from the cytochrome p450 4A (2XCYP). The renilla luciferase plasmid (0.1 μg/well) was also transfected as an internal control for monitoring transfection efficiency and for normalizing the firefly luciferase activity. Transfected cells were left for 24 hours incubation at 37° C. […] The pH of the drug solutions was adjusted to 7.4 with NaOH. Total cell extracts were prepared using the Passive Lysis Buffer (Promega™, Madison, Wis.). Luciferase activity was assayed in 20 μl of the extract using Promega's Dual Luciferase assay system according to manufacturer's protocol. Transfections were assayed in triplicate in at least three separate experiments. The luciferase activity was expressed as fold of the activity obtained in cells treated with the different molecules dividing by luciferase activity from non stimulated cells.
We investigated PPARγ transcriptional activity by transient transfections of epithelial cells with the renilla luciferase and PPRE plasmids. […]

cytokines = assay: Organ culture of duodenal biopsies, cytokines overall; format: cell-based, human; conditions: biopsies of celiac disease subjects versus subjects without celiac disease
Procedure: The biopsies were washed in saline for two minutes at least three times. The biopsies were placed in culture media having a volume equal to 1 ml: The biopsies are incubated in an O2 (95%) and CO2 (5%) atmosphere at a temperature of 37° C. for a period ranging from 4 h to 72 h. Three different amounts of medium are shared for the ELISA assay of Th1 and Th2 cytokines released in culture media.

IFN-gamma = assay: Gene expression (mRNA) by RT-PCR in cultured duodenal biopsies of celiac patients: IFN-gamma; format: cell-based, human; conditions: PT medium with 5-ASA versus PT medium, 37° C., 48 h; optical density of bands
TNF [1] = assay: Cytokine assay (ELISA) in culture liquids of duodenal biopsy organ cultures: TNF; format: cell-based, human; conditions: for TNF, PT + 5ASA C, Mean / TNF, PT + 5ASA C, Median: peptic-tryptic digest of gliadin (PT)
Procedure: (§1) 3 groups of subjects were evaluated. The first (atrophic) group included 29 subjects with serum tests positive to antiendomysium and anti-transglutaminase antibodies, with a neo-diagnosis of celiac disease and gluten-containing diet. The second (Remission) group included 17 celiac disease subjects in clinical remission and gluten-free diet for at least 6 months. The third (Healthy) group included subjects not suffering from the celiac disease but suffering from inflammation of the gastro-enteric tract. […] The biopsies were washed in saline for two minutes at least three times. […] Three different amounts of medium are shared for the ELISA assay of Th1 and Th2 cytokines released in culture media.

IFN = assay: Cytokine assay (ELISA) in culture liquids of duodenal biopsy organ cultures, 5-ASA 1.5-8.0 mg per ml, 4 h to 72 h: IFN; format: cell-based, human; conditions: for IFN, PT + 5ASA C, Mean / IFN, PT + 5ASA C, Median: peptic-tryptic digest of gliadin (PT)
Procedure: as §1

IL-2 [2] = assay: Gene expression (mRNA) by RT-PCR in cultured duodenal biopsies of celiac patients: IL-2; format: cell-based, human; conditions: PT medium with 5-ASA versus PT medium, 37° C., 48 h; optical density of bands
TNF [3] = assay: Cytokine assay (ELISA) from homogenate of cultured duodenal biopsies: TNF; format: cell-based, human; conditions: for TNF, PT + 5ASA O, Mean / TNF, PT + 5ASA O, Median: peptic-tryptic digest of gliadin (PT)
Procedure: The biopsies were washed in saline for two minutes at least three times. […] After an incubation time ranging from 4 h to 72 h, at a T of 37° C.: The bioptic fragment is washed three times in saline for two minutes The biopsies are homogenised by mechanical or chemical disintegration Centrifugation is carried out, the supernatant is collected and transferred in a 1.5 ml Eppendorf Fixed cytokines in the mucosal tissue are assayed by the Elisa assay.

IL-2 [4] = assay: Cytokine assay (ELISA) in culture liquids of duodenal biopsy organ cultures: IL-2; format: cell-based, human; conditions: for IL-2, PT + 5ASA C, Mean / IL-2, PT + 5ASA C, Median: peptic-tryptic digest of gliadin (PT)
Procedure: as §1

TFN-alpha = assay: Gene expression (mRNA) by RT-PCR in cultured duodenal biopsies of celiac patients: TFN-alpha; format: cell-based, human; conditions: PT medium with 5-ASA versus PT medium, 37° C., 48 h; optical density of bands
[5] = Atrophic population, N 21, Wilcoxon p = N.S.
[6] = Positive control population, N 7
[7] = Positive control population, N 7, Wilcoxon p = N.S.
[8] = Remission population, N 15, Wilcoxon p = N.S.
[9] = Atrophic population, N 22, Wilcoxon p = 0.05
[10] = Atrophic population, N 22, Wilcoxon p = 0.08
[11] = Remission population, N 15, Wilcoxon p = 0.022
[12] = Atrophic population, N 11, Wilcoxon p = 0.002
[13] = Atrophic population, N 11, Wilcoxon p = N.S.
[14] = Remission population, N 5, Wilcoxon p = N.S.
[15] = Atrophic population, N 15, Wilcoxon p = 0.012
[16] = Atrophic population, N 15, Wilcoxon p = 0.03
[17] = Positive control population, N 7, Wilcoxon p = 0.07
[18] = Remission population, N 12, Wilcoxon p = N.S.

Nc1ccc(O)c(C(=O)O)c1 [Compound 5ASA, mesalazine]
increase of the reporter gene activity (PPARγ): 2.8±0.7 fold | effect of Mesalazine in culture media on the cytokines (cytokines): blocks the cytokines in celiac disease subjects only | gene expression (mRNA) of IFN-gamma (IFN-gamma): well reduced | TNF, Medium + 5ASA C, Mean (TNF [1]; Atrophic population, N 21): 0.472 | TNF, Medium + 5ASA C, Median (TNF [1]; Atrophic population, N 21): 0.204 | TNF, Difference PT C/PT + 5ASA C, Median (TNF [1]; Atrophic population, N 21, Wilcoxon p < 0.0001): 0.0580 | TNF, Difference Medium C/Medium + 5ASA C, Mean (TNF [1]; [5]): 0.0048 | TNF, Difference Medium C/Medium + 5ASA C, Median (TNF [1]; [5]): 0.0150 | TNF, PT + 5ASA C, Mean (TNF [1]; Atrophic population, N 21): 0.414 | TNF, PT + 5ASA C, Median (TNF [1]; Atrophic population, N 21): 0.120 | TNF, Medium + 5ASA C, Mean (TNF [1]; [6]): 0.259 | TNF, Medium + 5ASA C, Median (TNF [1]; [6]): 0.229 | TNF, Difference Medium C/Medium + 5ASA C, Mean (TNF [1]; [7]): 0.005 | TNF, Difference Medium C/Medium + 5ASA C, Median (TNF [1]; [7]): 0.0040 | TNF, Difference PT C/PT + 5ASA C, Mean (TNF [1]; [7]): 0.0226 | TNF, Difference PT C/PT + 5ASA C, Median (TNF [1]; [7]): 0.0250 | TNF, PT + 5ASA C, Mean (TNF [1]; [6]): 0.291 | TNF, Medium + 5ASA C, Mean (TNF [1]; Remission population, N 15): 0.894 | TNF, Medium + 5ASA C, Median (TNF [1]; Remission population, N 15): 0.571 | TNF, Difference PT C/PT + 5ASA C, Median (TNF [1]; Remission population, N 15, Wilcoxon p = 0.005): 0.221 | TNF, Difference Medium C/Medium + 5ASA C, Mean (TNF [1]; [8]): 0.0541 | TNF, Difference Medium C/Medium + 5ASA C, Median (TNF [1]; [8]): 0.0790 | TNF, PT + 5ASA C, Mean (TNF [1]; Remission population, N 15): 0.305 | TNF, PT + 5ASA C, Median (TNF [1]; Remission population, N 15): 0.545 | IFN, Difference PT C/PT + 5ASA C, Mean (IFN; [9]): 0.0657 | IFN, Difference PT C/PT + 5ASA C, Median (IFN; [9]): 0.0505 | IFN, Difference Medium C/Medium + 5ASA C, Mean (IFN; [10]): 0.0601 | IFN, Difference Medium C/Medium + 5ASA C, Median (IFN; [10]): 0.0260 | IFN, PT + 5ASA C, Mean (IFN; Atrophic population, N 22): 0.145 | IFN, PT + 5ASA C, Median (IFN; Atrophic population, N 22): 0.0545 | IFN, Medium + 5ASA C, Mean (IFN; [6]): 0.149 | IFN, Medium + 5ASA C, Median (IFN; [6]): 0.140 | IFN, Difference Medium C/Medium + 5ASA C, Mean (IFN; [7]): 0.004 | IFN, Difference Medium C/Medium + 5ASA C, Median (IFN; [7]): 0.029 | IFN, Difference PT C/PT + 5ASA C, Mean (IFN; [7]): 0.0247 | IFN, Difference PT C/PT + 5ASA C, Median (IFN; [7]): 0.0090 | IFN, PT + 5ASA C, Mean (IFN; [6]): 0.116 | IFN, PT + 5ASA C, Median (IFN; [6]): 0.121 | IFN, Medium + 5ASA C, Mean (IFN; Remission population, N 15): 0.201 | IFN, Medium + 5ASA C, Median (IFN; Remission population, N 15): 0.208 | IFN, Difference PT C/PT + 5ASA C, Mean (IFN; [11]): 0.101 | IFN, Difference PT C/PT + 5ASA C, Median (IFN; [11]): 0.0210 | IFN, Difference Medium C/Medium + 5ASA C, Mean (IFN; [8]): 0.0383 | IFN, Difference Medium C/Medium + 5ASA C, Median (IFN; [8]): 0.0500 | IFN, PT + 5ASA C, Mean (IFN; Remission population, N 15): 0.153 | IFN, PT + 5ASA C, Median (IFN; Remission population, N 15): 0.0960 | gene expression (mRNA) of IL-2 (IL-2 [2]): well reduced | TNF, Medium + 5ASA O, Mean (TNF [3]; Atrophic population, N 11): 0.123 | TNF, Difference PT O/PT + 5ASA O, Mean (TNF [3]; [12]): 0.0554 | TNF, Difference PT O/PT + 5ASA O, Median (TNF [3]; [12]): 0.0270 | TNF, Difference Medium O/Medium + 5ASA O, Mean (TNF [3]; [13]): 0.0154 | TNF, Difference Medium O/Medium + 5ASA O, Median (TNF [3]; [13]): 0.0100 | TNF, PT + 5ASA O, Mean (TNF [3]; Atrophic population, N 11): 0.101 | TNF, PT + 5ASA O, Median (TNF [3]; Atrophic population, N 11): 0.0980 | TNF, Medium + 5ASA O, Mean (TNF [3]; Remission population, N 5): 0.122 | TNF, Difference Medium O/Medium + 5ASA O, Mean (TNF [3]; [14]): −0.00 | TNF, Difference Medium O/Medium + 5ASA O, Median (TNF [3]; [14]): 0.0050 | TNF, Difference PT O/PT + 5ASA O, Mean (TNF [3]; [14]): 0.0194 | TNF, Difference PT O/PT + 5ASA O, Median (TNF [3]; [14]): 0.0210 | TNF, PT + 5ASA O, Mean (TNF [3]; Remission population, N 5): 0.107 | TNF, PT + 5ASA O, Median (TNF [3]; Remission population, N 5): 0.110 | IL-2, Medium + 5ASA C, Mean (IL-2 [4]; Atrophic population, N 15): 0.119 | IL-2, Medium + 5ASA C, Median (IL-2 [4]; Atrophic population, N 15): 0.0910 | IL-2, Difference PT C/PT + 5ASA C, Mean (IL-2 [4]; [15]): 0.0270 | IL-2, Difference PT C/PT + 5ASA C, Median (IL-2 [4]; [15]): 0.0410 | IL-2, Difference Medium C/Medium + 5ASA C, Mean (IL-2 [4]; [16]): 0.0559 | IL-2, Difference Medium C/Medium + 5ASA C, Median (IL-2 [4]; [16]): 0.0490 | IL-2, PT + 5ASA C, Mean (IL-2 [4]; Atrophic population, N 15): 0.124 | IL-2, PT + 5ASA C, Median (IL-2 [4]; Atrophic population, N 15): 0.0770 | IL-2, Medium + 5ASA C, Mean (IL-2 [4]; [6]): 0.356 | IL-2, Medium + 5ASA C, Median (IL-2 [4]; [6]): 0.379 | IL-2, Difference Medium C/Medium + 5ASA C, Mean (IL-2 [4]; [17]): 0.116 | IL-2, Difference Medium C/Medium + 5ASA C, Median (IL-2 [4]; [17]): 0.247 | IL-2, Difference PT C/PT + 5ASA C, Mean (IL-2 [4]; [7]): −0.020 | IL-2, Difference PT C/PT + 5ASA C, Median (IL-2 [4]; [7]): 0.0210 | IL-2, PT + 5ASA C, Mean (IL-2 [4]; [6]): 0.521 | IL-2, PT + 5ASA C, Median (IL-2 [4]; [6]): 0.468 | IL-2, Medium + 5ASA C, Mean (IL-2 [4]; Remission population, N 12): 0.309 | IL-2, Medium + 5ASA C, Median (IL-2 [4]; Remission population, N 12): 0.253 | IL-2, Difference Medium C/Medium + 5ASA C, Mean (IL-2 [4]; [18]): 0.0061 | IL-2, Difference Medium C/Medium + 5ASA C, Median (IL-2 [4]; [18]): 5E−4 | IL-2, Difference PT C/PT + 5ASA C, Mean (IL-2 [4]; [18]): 0.0365 | IL-2, Difference PT C/PT + 5ASA C, Median (IL-2 [4]; [18]): 0.0260 | IL-2, PT + 5ASA C, Mean (IL-2 [4]; Remission population, N 12): 0.234 | IL-2, PT + 5ASA C, Median (IL-2 [4]; Remission population, N 12): 0.194 | gene expression (mRNA) of TFN-alpha (TFN-alpha): well reduced
